Measurements published in ChEMBL document CHEMBL2424559, “Design, synthesis and antitubercular evaluation of novel 2-substituted-3H-benzofuro benzofurans via palladium-copper catalysed Sonagashira coupling reaction” (Bioorg Med Chem Lett, 2013).
≈ marks a conversion by molar mass, not a printed value.

Tests used:
[1] = Lipophilicity, log P of the compound; assay type: physicochemical; conditions: octanol/water
[2] = Cytotoxicity against HEK293T cells at 50 ug/ml after 72 hrs by MTT assay; assay type: cell-based, HEK-293T; conditions: human, read-out: INH
[3] = system: Mycobacterium tuberculosis; assay: microbe, parasite or virus in culture; conditions: H37Rv ATCC 27294, 672 h
Description: Antimycobacterial activity against Mycobacterium tuberculosis H37Rv ATCC 27294 after 28 days by agar dilution method

[4] = Therapeutic index, ratio of inhibition of HEK293T cells to MIC for Mycobacterium tuberculosis H37Rv ATCC 27294; assay type: cell-based, HEK-293T; conditions: human, read-out: TI

Compound	logP [1]	cytotoxicity at 72 h, 50 ug/ml [2] [%]	MIC [3] [µg/mL]	selectivity ratio [4]
c1ccc(-c2cc3c(ccc4oc5ccccc5c43)o2)cc1	4.04	32.1	6.25 (≈ 22 µM)	
Cc1cccc(-c2cc3c(ccc4oc5ccccc5c43)o2)c1	4.53	56.8	12.5 (≈ 41.9 µM)	
COc1ccc(-c2cc3c(ccc4oc5ccccc5c43)o2)c(C)c1	4.4	32.1	3.12 (≈ 9.5 µM)	> 10
Cc1ccc(-c2cc3c(ccc4oc5ccccc5c43)o2)cc1	4.53	21.6	6.25 (≈ 20.9 µM)	
COc1ccc(-c2cc3c(ccc4oc5ccccc5c43)o2)cc1	3.92	13.8	50 (≈ 159 µM)	
CCCCCc1ccc(-c2cc3c(ccc4oc5ccccc5c43)o2)cc1	5.78	40.2	12.5 (≈ 35.3 µM)	
CCCCCCc1cc2c(ccc3oc4ccccc4c32)o1	4.8	32.1	6.25 (≈ 21.4 µM)	
FC(F)(F)Oc1ccc(-c2cc3c(ccc4oc5ccccc5c43)o2)cc1	5.57	72.1	50 (≈ 136 µM)	
Fc1ccc(-c2cc3c(ccc4oc5ccccc5c43)o2)c(F)c1	4.36	34.1	50 (≈ 156 µM)	
c1ccc2c(c1)oc1ccc3oc(-c4ccsc4)cc3c12	3.97	23.1	50 (≈ 172 µM)	
CC[C@@H](CO)NCCN[C@@H](CC)CO [ETHAMBUTOL]			3.13 (≈ 15.3 µM)	
NNC(=O)c1ccncc1 [ISONIAZID]			0.1 (≈ 0.729 µM)	
NC(=O)c1cnccn1 [PYRAZINAMIDE]			50 (≈ 406 µM)	
